# Source: patent publication US20260102413A1, “TREATING PAIN ASSOCIATED WITH CENTRAL SENSITIZATION” (Medicon Pharmaceuticals, Inc., priority 2022, published 2026)
# How the values were obtained:
# STZ-diabetic rats = assay type: in vivo, rat; settings: PS 8% hydrogel, sulindac 0.7% hydrogel 3x/day day −2 to 28; lidocaine cream 5% once 30 min before; STZ day 0; day 28
# Excerpt: The animal model corresponds to that used for Example 4, but using a prevention protocol. As in Example 4, the outcome measure, determining the effect of the treatment on the prevention of mechanical allodynia, was the PWT test, using von Frey filaments. The measurements were taken at day −3, before treatment or induction of neuropathic pain associated with DPN, and again at the end of the study period (day 28).
# The rats were randomised into treatment groups as follows, all having an average body weight of about 225 g. • 1. Group 1: naïve rats (n=6) • 2. Group 2: STZ only (n=8) • 3. Group 3: STZ plus vehicle (n=8) • 4. […] Group 5: STZ plus sulindac 0.7% (n=8) • 6. Group 6: STZ plus lidocaine cream 5% (n=8)
# Each treatment group was subjected to a PWT assessment at day −3 in order to determine the baseline of mechanical allodynia.
# For those rats in the lidocaine treatment group, lidocaine cream was applied only once to both hind paws of the rats 30 min before the final PWT measurement on day 28. On day 0, neuropathic pain associated with DPN was induced with the administration of STZ, and the blood glucose was checked on day 3.
# [1] = test system: mice with paclitaxel-induced CIPN; assay: von Frey PWT, paclitaxel CIPN model, orally administered compounds; assay type: in vivo, mouse; settings: paclitaxel 8 mg/kg x4; oral gavage 3x/day 7 days: PS 50, sulindac 33, PN 65, naproxen 35 mg/kg; day 7
# Excerpt: CIPN was induced in mice with chemotherapeutic agents using established protocols (Carozzi et al, 2010; Currie et al, 2019; Eldridge et al, 2020). […] This dosing regimen of paclitaxel produces pain associated with CIPN with time courses that are similar to those of pain after paclitaxel administration in cancer patients.
# Group 1: naïve mice (i.e. no paclitaxel, n=8) • 2. Group 2: paclitaxel only (n=8) • 3. Group 3: paclitaxel plus vehicle (n=8) • 4. […] Group 5: paclitaxel pluse sulindac (n=8)
# The PWT test was performed on day 7.
# Phospho-naproxen (PN) and naproxen were given by oral gavage, three times a day for 7 days. Their doses were as follows: PN, 65 mg/kg; naproxen, 35 mg/kg (equimolar to PN). The response of mechanical allodynia to phospho-naproxen (PN) and naproxen was tested on day 7.
# (§1) This dosing regimen of paclitaxel produces pain associated with CIPN with time courses that are similar to those of pain after paclitaxel administration in cancer patients.
# Phospho-ibuprofen (PI) (Formula III), phospho-glycerol-ibuprofen (PGI) (Formula LXXI), phospho-ibuprofen-amide (PIA) (Formula XI), and ibuprofen were given by oral gavage, three times a day for 6 days. Their doses were as follows: ibuprofen, 40 mg/kg; PI, 80 mg/kg; PIA, 80 mg/kg; all three were equimolar.
# The response of mechanical allodynia to these compounds was tested on day 6, using the PWT test.
# as §1
# NO-sulindac (Formula XLIV), HS-sulindac (Formula XXXIV), platinum-sulindac (Formula LXVII), and NOSH-1 (Formula LIX) were given by oral gavage, three times a day throughout the study period. Their doses were all 100 mg/kg.
# The response of mechanical allodynia to these compounds was tested on the days set out in the table below, via the PWT test.
# LXIX was given by oral gavage, once a day for 14 days at a dose of 100 mg/kg.
# The response of mechanical allodynia to these compounds was tested on day 14, via the PWT test.
# [2] = test system: BALB/c mice infected with HSV-1 KOS strain (PHN); assay type: in vivo, mouse; settings: second experiment; sulindac 5% gel on both hind paws 3x/day for three days
# Procedure: PHN was induced in mice by infecting them with the HSV-1 KOS strain virus and following established protocols (Ou et al, Front Immunol, 14, 1026269, 2023; Takasaki et al, Anesthesiology, 96 (5), 1168-74, 2002).
# ; Reckitt Benckiser). Three days later, HSV-1 (10^6 PFUs in 20 μl PBS) was inoculated on the shin of the right hind paw (5×5 mm) after scarification with sandpaper. The virus was applied directly to the scarified area. The contralateral hind paw was without inoculation. Mock infection was performed using the same virus inactivated by heating at 60° C. for 1 h.
# In a second experiment, the effect of the parent compound, sulindac, was tested in the same mouse model. Five days post-inoculation, sulindac (as a 5% gel), or vehicle control were administered topically onto both hind paws of mice three times a day for three days.
# PHN was induced in mice by infecting them with the HSV-1 KOS strain virus in line with the previous Examples.
# Five days post-inoculation, NO-sulindac (Formula XLIV) (as a 5% gel), or vehicle control were administered topically onto both hind paws of mice three times a day for three days.
# [3] = test system: mice with chronic constriction injury (PTPN); assay: von Frey PWT, CCI model of PTPN, orally administered compounds; assay type: in vivo, mouse; settings: oral once a day: PS 50, PSA 50, sulindac 33 mg/kg
# Procedure: Phospho-ibuprofen (PI) (Formula III), phospho-ibuprofen-amide (PIA) (Formula XI), ibuprofen and vehicle control were all administered orally, three times a day for 14 days. Their doses were as follows: PI 80 mg/kg, PIA 80 mg/kg, ibuprofen 40 mg/kg (all three are equimolar). […] Group 1: vehicle (n=5-8) • 2. Group 2: ibuprofen (n=5-8) • 3. Group 3: phospho-ibuprofen (PI) (n=5-8) • 4. Group 4: phospho-ibuprofen-amide (PIA) (n=5-8)
# [4] = test system: mice with NTG-induced chronic migraine; assay: von Frey PWT, NTG-induced chronic migraine model; assay type: in vivo, mouse
# Excerpt: The NTG-induced chronic migraine model was used as described previously.
# [5] = test system: mice with NTG-induced migraine; assay: von Frey PWT, NTG-induced migraine model, oral or intraperitoneal compounds; assay type: in vivo, mouse; settings: oral 30 min after NTG: PS 50, sulindac 33, PN 65, naproxen 35 mg/kg; 30 min after administration
# Procedure: Phosphonaproxen (Formula VIII), and its parent compound, naproxen, were administered orally to each mouse group. All compounds were administered at equimolar doses. In particular, phosponaproxen was administered at 65 mg/kg, and naproxen was administered at 35 mg/kg, 30 minutes after NTG administration. The response of mechanical allodynia was tested 30 minutes after administration.
# [6] = test system: mice with chronic constriction injury of the left sciatic nerve (PTPN); assay: von Frey PWT, chronic constriction injury (CCI) model of PTPN, topical compounds; assay type: in vivo, mouse; settings: PS 5% gel, sulindac 0.7% gel on left paw 3x/day 14 days; pregabalin (10 mg/ml) oral gavage once 1 h before; day 14
# Procedure: The PWT test was performed following ligation, but prior to treatment to determine baseline values. The PWT was then further measured on day 14.
structure (smiles),measurement,setting,value
"CC1=C(CC(=O)O)c2cc(F)ccc2/C1=C\c1ccc([S+](C)[O-])cc1 (stereo not drawn) [sulindac, reference compound]","von Frey, gm mean ± SEM",STZ-diabetic rats,27.7 ± 1.4 gm
same,"PWT, g Mean ± SEM",[1],0.56 ± 0.05 g
same,"PWT, g Mean ± SEM, Post-inoculation and treatment",[2],0.56 ± 0.06 g
same,"PWT, g Mean ± SEM",[3]; Day 6,Day 6 = 0.6 ± 0.03 g
same,"PWT, g Mean ± SEM",[3]; Day 14,Day 14 = 0.6 ± 0.0 g
same,"PWT, g Mean ± SEM, Day 11","[4]; NTG 0.4 mg sublingual every two days x5, oral once a day 11 days: PS 50, sulindac 33 mg/kg, 30 min after administration",0.43 ± 0.03 g
same,"PWT, g Mean ± SEM, Baseline",[4]; group baseline prior to NTG administration,1.80 ± 0.12 g
same,"PWT, g Mean ± SEM",[5],0.60 ± 0.04 g
same,"PWT, g Mean ± SEM",[6],0.63 ± 0.07 g
